Assay: Water solubility of labeling precursor
Assay type: physicochemical
Settings: aqueous 0.1% acetic acid
From the text: The radiochemical strategy shown on FIG. 3 uses the mild, water soluble oxidant, N-chlorosuccinimide, to achieve iodination on the hydroxyphenyl group of 4. […] Even though much greater radiochemical yield was possible by increasing the ratio of 4 to Na^125I, the highest possible specific activity of the radiolabeled intermediate 5 and higher conjugation yields was facilitated by avoiding saturation of available reduced thiols. The intermediate 5 was easily purified from free iodide and oxidant using reverse-phase solid-phase extraction cartridges. Acid deprotection yielded the triacid 6, with completeness of reaction monitored by reverse-phase radio-HPLC (FIG. 3). This 4-hydroxy-3-iodophenyl derivative of DOTA, 6, was designated [^125I] HIP-DOTA. After exhaustive removal of acid by repeated evaporation of toluene, the thiol-containing antibody could be introduced for thiol-maleimide coupling. Remaining free thiols in the radioimmunoconjugate were capped with iodoacetic acid to avoid dimerization or formation of adducts with thiol containing plasma or endogenous proteins. All radioimmunoconjugates were analyzed for purity by size-exclusion HPLC and compared to the profile of unlabeled antibodies, such as trastuzumab.

CC(C)(C)OC(=O)CN1CCN(CC(=O)NCCN(CC(=O)NCC(=O)NCCN2C(=O)C=CC2=O)C(=O)Cc2ccc(O)cc2)CCN(CC(=O)OC(C)(C)C)CCN(CC(=O)OC(C)(C)C)CC1 [compound 4, tri-tert-butyl 2,2′,2″-(10-(14-(2,5-dioxo-2,5-dihydro-1H-pyrrol-1-yl)-6-(2-(4-hydroxyphenyl)acetyl)-2,8,11-trioxo-3,6,9,12-tetraazatetradecyl)-1,4,7,10-tetraazacyclododecane-1,4,7-triyl)triacetate]
Water solubility: sufficiently water soluble

From patent US9486546B2, “Methods and compositions for radiohalogen protein labeling” (Genentech, Inc., priority 2012, dated 2016)
